Source: patent US5356886A, “Antiviral phosphono-alken derivatives of purines” (Beecham Group p.l.c., priority 1990, dated 1994)
In brackets after ≈: the same amount, converted by molar mass. Read-outs that look alike come from different tables or passages of the source.

What was measured:
Type in all cases: cell-based
HIV [1] = assay: HIV Suppression test, viral antigen (core protein p24, sandwich ELISA) in peripheral human lymphocytes; conditions: Human immunodeficiency virus 1, Lymphocyte, 96 h; Concn. 10 μM; read-out: % Inhibition on Day 4 after infection, Viral Antigen
Description: (§1) Peripheral human lymphocytes were prepared, cultivated, and harvested as above. Following the determination of the lymphocyte surface markers, unstimulated and mitogen stimulated cells were combined in a ratio of 1:2.
(§2) Under safety conditions these cells are infected with a standard preparation of HIV. The cells are sedimented by centrifugation. The supernatant was discarded and cells were resuspended in the HIV inoculum.
(§3) This inoculum is a liquid suspension of HIV-1 strain virus, pretested and adjusted to a titer that results in a synthesis of viral core protein p24 of >100 ng/ml at day four following infection of human lymphocytes according to the protocol.
(§4) 3×10^8 lymphocytes were resuspended in 1 ml HIV inoculum and incubated at 37° C. for 60 minutes. Subsequently, the cells were washed two times with 50 ml of culture medium and resuspended in culture medium containing 10 units/ml of human recombinant interleukin-2 to yield a cell concentration of 2×10^6 cells/ml. 100 μof this cell suspension was added to each well of the microtiter plates containing the diluted solutions of the compounds. The microtiter plates were cultivated in an incubator with a humidified atmosphere and 5% CO2 at 37° C.
(§5) Accordingly, a fraction of lymphocytes was mock-infected with the same virus preparation that was heat inactivated (30 minutes at 56° C.) prior to infection.
(§6) On each of the days 2,3 and 4 post infection one of the microtiter plates which had been established in triplicate was prepared for determination of viral replication. Viral RNA is determined within the cells whereas the viral core protein p24 was detected in the supernatant of the lymphocyte culture.
(§7) Accordingly, 150 μl of supernatant were removed from each well and transferred to the well of a microtiter plate containing 50 μl/well of SDS (sodium dodecylsulfate, 0.08%). These plates were stored frozen. 50 μl of stop solution (1% SDS, 20 mM sodium acetate, pH 5.0, and 200 μg/ml heparin) were added to the cells remaining in each well. The plates were stored frozen.
(§8) The concentration of p24 synthesized by the HIV infected cells was determined by means of a sandwich ELISA, while the concentration of viral RNA was quantitated by nucleic acid hybridisation, using a ^32 P-labelled DNA probe for the gag/pol region of the viral genome. Absolute levels of viral antigen and RNA in drug treated samples were compared with untreated, virus-infected controls and the percentage inhibition calculated.

[2] = Cytotoxicity for the cell monolayers in the FIV test; conditions: cat, crandell feline kidney cells
Description: (§9) Drug stocks were diluted to the appropriate concentration, in medium (e.g. 10 mg/ml to 200 μg/ml). 150 μl of each drug was dispersed in triplicate, across the top row of a microtitre plate (150 μl of media for virus and cell control, vc and cc). 100 μl of medium was dispersed into all other wells. The wells were serially diluted moving down the plate, removing 50 μl from each well and transferring to the next row. 50 μl was discarded from the bottom wells.
(§10) Trypsinisation was carried out from a confluent cell monolayer of Crandell Feline Kidney cells, in 10% trypsin, followed by resuspension in media at 1×10^6 per ml, ensuring that a single cell suspension is achieved. (Media: 90% 1×RPMI, 25 mM hepes buffer; 10% Foetal calf serum; 2% Glutamine; 2% penecillin/streptomycin.)
(§11) FIV Glasgow 8 virus was diluted to 4× the required virus challenge in medium (40 TCID50 /ml). The virus infected medium was mixed with an equal volume of cell suspension, 100 μl of which was aliquoted into each well of the drug plate, except cell control. 100 μl of cell suspension at 5×10^4 per ml was added to the latter. This gives a final cell concentration of 2.5×10^4 per ml, and drug range 100-0.03 μg/ml. The plates were incubated at 37° C., 5% CO2 in an air humidified incabator for 11-14 days. The cells were fixed by immersing the plates in formoli saline (10% formaldehyde; 10% 1.5M NaCl; 80% water) for 1 hour minimum. The cells were stained with 10% crystal violet for 15 minutes.
(§12) The assay was scored by looking for presence of syncitia and, virus induced cytopathic effect in the cell monolayers, under a microscope. Results are given as the minimum concentration of drug inhibiting syncitial production, minimum inhibitory concentration, MIC.

HIV [3] = assay: HIV Suppression test, viral RNA (nucleic acid hybridisation) in peripheral human lymphocytes; conditions: Human immunodeficiency virus 1, Lymphocyte, 96 h; Concn. 10 μM; read-out: % Inhibition on Day 4 after infection, Viral RNA
Description: as §1, §2, §3, §4, §5, §6, §7, §8

Visna Virus = assay: CPE Inhibition Test (Established Monolayer) for Lentiviruses, visna virus (strain K184) in sheep choroid plexus cells; conditions: Visna-maedi virus; visna virus strain K184, SCP cells; read-out: MIC (minimum concentration giving complete protection of the cell monolayers)
Description: 3×10^4 sheep choroid plexus (SCP) cells were plated into individual wells of a 96 well microtitre plate in 100 μl of Eagle's MEM with Hanks' salts containing 10% heat inactivated foetal calf serum (FCS). When monolayers had become established (after 1 or 2 days growth) they were washed with 200 μl of maintenance medium (Eagle's MEM with Hanks' salts containing 0.5% FCS) and infected with 100 μl of visna virus (strain K184) in maintenance medium (30 TCID50/ml). Test samples were diluted with maintenance medium in further 96 well microtitre plates over the range 200-0.06 μg/ml by 3-fold dilution steps. 100 μl of the diluted samples was then transferred directly onto virus-infected monolayers (final concentration range therefore 100-0.03 μg/ml) and […] containing 5% CO2 until virus-induced CPE was maximal in the untreated virus-infected controls (usually 12-14 days). The plates were fixed with formal saline and stained with crystal violet. Virus-induced CPE was then scored microscopically and the minimum concentration of sample giving complete protection of the cell monolayers (MIC) determined.

FIV = assay: Test for Feline Immunodeficiency Virus (FIV Glasgow 8) in Crandell Feline Kidney cells; conditions: FIV Glasgow 8, Crandell Feline Kidney cells, 11-14 days, read-out: MIC (minimum concentration of drug inhibiting syncitial production)
Description: as §9, §10, §11, §12

VZV = assay: Plaque Reduction Test for Varicella-Zoster Virus (Ellen strain) in MRC-5 cells; conditions: Human alphaherpesvirus 3, MRC5
Description: (§13) MRC-5 cells were grown to confluence in 24 well multi-dishes (well diameter=1.5 cm). The drained cell monolayers were each infected with approximately 50 infectious particles of varicella zoster virus (VZV; Ellen strain) in 100 μl of phosphate-buffered saline. The virus was adsorbed for 1 hour at room temperature. After adsorption, residual inoculum was removed from each well and replaced with 0.5 ml of Eagle's MEM containing 5% heat-inactivated foetal calf serum and 0.9% agarose (A37). Once the agarose had set, dilutions of the test compound, which had been prepared in Eagle's MEM (containing 5% heat-inactivated foetal calf serum), were added, each well receiving 0.5 ml of liquid overlay. The test compound was diluted to give the following series of concentrations: 200, 60, 20, 6 . . . 0.06 μg/ml; final concentrations in the assay ranged, therefore, between 100 μg/ml and 0.03 μg/ml. The infected cultures were incubated at 37° C. in a humidified atmosphere of 5% CO2 until plaques were clearly visible (5 or 6 days).
(§14) Cultures from 1 and 2 were fixed in formal saline, the agarose overlays were carefully washed off, and then the cell monolayers were stained with carbol fuchsin. A stereo microscope was used to count plaques. The IC50 (concentration of drug which inhibits the number of plaques formed by 50% relative to the number of plaques observed in virus control monolayers) of the test compound was calculated. In addition, the monolayers were examined for evidence of drug-induced cytotoxicity; the minimum concentration at which cytotoxicity occurs was recorded.

HSV-2 = assay: Plaque Reduction Test for Herpes Simplex Virus 2 (strain MS) in MRC-5 cells; conditions: Human alphaherpesvirus 2, MRC5
Description: as §13, with “herpes simplex” for “varicella zoster”, “1 (HSV-1; strain SC16) or herpes simplex virus 2 (HSV-2; strain MS)” for “(VZV; Ellen strain)”, “newborn” for “heat-inactivated foetal”, “(usually 1 day).” for “(5 or 6 days).”
as §14

CMV = assay: Plaque Reduction Test for Cytomegalovirus (AD-169 strain) in MRC-5 cells; conditions: Human betaherpesvirus 5, AD169, MRC5
Description: MRC-5 cells were grown to confluence in 24 well multi-dishes (well diameter=1.5 cm). The drained cell monolayers were each infected with approximately 50 infectious particles of cytomegalovirus (CMV; AD-169 strain) in 100 μl of phosphate-buffered saline. The virus was adsorbed for 1 hour at room temperature. After adsorption, residual inoculum was removed from each well and replaced with 1 ml of Eagle's MEM containing 10% heat inactivated foetal calf serum and 0.9% agarose (A37). Once the agarose had set, dilutions of the test compound, which had been prepared in Eagle's MEM (containing 10% heat-inactivated calf serum), were added, each well receiving 1 ml of liquid overlay. The test compound was diluted to give the following series of concentrations: 200, 60, 20, 6 . . . 0.06 μg/ml; final concentrations in the assay range, therefore, between 100 μg/ml and 0.03 μg/ml. The infected cultures were incubated at 37° C. in a humidified atmosphere containing 5% CO2 until plaques were clearly visible (about 12 days). The cultures are fixed in formol saline, the agarose overlays were carefully washed off, and then the cell monolayers were stained with carbol fuchsin. A stereo microscope was used to count plaques. The IC50 (concentration of drug which inhibits the number of plaques formed by 50% relative to the number of plaques observed in virus control monolayers) of the test compound was calculated. In addition, the monolayers were examined for evidence of drug-induced cytotoxicity; the minimum concentration at which cytotoxicity occurs was recorded.

HSV-1 = assay: Plaque Reduction Test for Herpes Simplex Virus 1 (strain SC16) in MRC-5 cells; conditions: Human alphaherpesvirus 1, MRC5
Description: as §13, with “herpes simplex” for “varicella zoster”, “1 (HSV-1; strain SC16) or herpes simplex virus 2 (HSV-2; strain MS)” for “(VZV; Ellen strain)”, “newborn” for “heat-inactivated foetal”, “(usually 1 day).” for “(5 or 6 days).”
as §14

[4] = no cytotoxicity noted with concentrations up to this value, read-out: cytotoxicity for the cell monolayers
[5] = read-out: concentration at which cytotoxicity was noted

| SMILES | inhibition at 10 µM (HIV [1]) | MCC [2, 4] | inhibition at 10 µM (HIV [3]) | MIC (Visna Virus) | MIC (FIV) | IC50 (VZV) | IC50 (HSV-2) | IC50 (CMV) | IC50 (HSV-1) | MCC [2, 5] |
| --- | --- | --- | --- | --- | --- | --- | --- | --- | --- | --- |
| Nc1ncnc2c1ncn2OCC/C=C/P(=O)(O)O [Example 3, (E)-9-(4-phosphonobut-3-enyloxy)adenine] | 47% | > 100 µg/mL | 44% | 10 µg/mL (≈ 35.1 µM) | 10 µg/mL (≈ 35.1 µM) | – | – | – | – | – |
| Nc1ncnc2c1ncn2CC/C=C/P(=O)(O)O [Example 5, (E)-9-[4-Phosphonobut-3-enyl]adenine] | – | – | – | 1 µg/mL (≈ 3.71 µM) | – | – | – | – | – | – |
| Nc1nc2c(ncn2CC/C=C/P(=O)(O)O)c(=O)[nH]1 [Example 6, (E)-9-[4-phosphonobut-3-enyl]guanine] | – | – | – | 0.1 µg/mL (≈ 0.351 µM) | – | 55 µg/mL (≈ 193 µM) | 26 µg/mL (≈ 91.2 µM) | 15 µg/mL (≈ 52.6 µM) | 100 µg/mL (≈ 351 µM) | – |
| Nc1nc(N)c2ncn(CC/C=C/P(=O)(O)O)c2n1 [Example 8, (E)-2,6-Diamino-9-(4-phosphonobut-3-enyl)purine] | 37% | – | 62% | 0.3 µg/mL (≈ 1.06 µM) | – | – | – | – | – | – |
| Nc1ncnc2c1ncn2OCC/C=C\P(=O)(O)O [Example 10, (Z)-9-(4-Phosphonobut-3-enyloxy) adenine] | – | – | – | 100 µg/mL (≈ 351 µM) | – | – | – | – | – | – |
| Nc1nc2c(ncn2OCC/C=C\P(=O)(O)O)c(=O)[nH]1 [Example 11, (Z)-9-(4-phosphonobut-3-enyloxy)guanine] | 3% | – | 33% | < 0.03 µg/mL | – | > 100 µg/mL | > 100 µg/mL | 55 µg/mL (≈ 183 µM) | 100 µg/mL (≈ 332 µM) | – |
| Nc1nc2c(ncn2OCC(/C=C/P(=O)(O)O)CO)c(=O)[nH]1 (stereo not drawn) [Example 13, (E)-9-(2-hydroxymethyl-4-phosphonobut-3-enyloxy)guanine] | – | – | – | – | 0.1 µg/mL (≈ 0.302 µM) | 5 µg/mL (≈ 15.1 µM) | 60 µg/mL (≈ 181 µM) | 15 µg/mL (≈ 45.3 µM) | 100 µg/mL (≈ 302 µM) | 1 µg/mL |
| Nc1ncnc2c1ncn2OCC(/C=C/P(=O)(O)O)CO (stereo not drawn) [Example 15, (E)-9-(2-hydroxymethyl-4-phosphonobut-3-enyloxy) adenine] | – | > 100 µg/mL | – | – | 30 µg/mL (≈ 95.2 µM) | – | – | – | – | – |
| Nc1ncnc2c1ncn2CC(/C=C/P(=O)(O)O)CO (stereo not drawn) [Example 17, (E)-9-(2-Hydroxymethyl-4-phosphonobut-3-enyl)adenine] | – | – | – | – | 0.03 µg/mL (≈ 0.1 µM) | < 3 µg/mL | 29 µg/mL (≈ 96.9 µM) | 11 µg/mL (≈ 36.8 µM) | 20 µg/mL (≈ 66.8 µM) | 10 µg/mL |
